Laboratory results taken from PubChem BioAssay AID330 (DTP/NCI, 2004).
“And” between values parts separate entries of the source, which are not always exact repeats. Identical values can stand only once. Inconclusive results and toxic doses are left out.

System: P388 leukemia ip, CD2F1 mice, survival T/C
Test: NCI In Vivo Anticancer Drug Screen. Data for tumor model P388 Leukemia (intraperitoneal) in CD2F1 (CDF1) mice
Conditions: endpoint: median survival time, higher = longer survival
Summary of the method: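 Mice carrying the transplanted tumor received test compound or vehicle. Survival was recorded in each group, and the value is the treated-group measurement divided by that of the vehicle-treated control group.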

[1] = dose: 60.0 mg/kg/injection, schedule: Q01DX005 (ip), vehicle: saline with Tween-80
[2] = dose: 120.0 mg/kg/injection, schedule: Q01DX005 (ip), vehicle: saline with Tween-80
[3] = dose: 240.0 mg/kg/injection, schedule: Q01DX005 (ip), vehicle: saline with Tween-80
[4] = dose: 50.0 mg/kg/injection, schedule: Q01DX009 (ip), vehicle: saline with Tween-80
[5] = dose: 100.0 mg/kg/injection, schedule: Q01DX009 (ip), vehicle: saline with Tween-80

## O=C1C2OC2C(=O)C2C3C=CC(C3)C12 (stereo not drawn)
dose: 75.0 mg/kg/injection, schedule: Q04DX002 (ip), vehicle: saline with Tween-80
  T/C: 99 % of control
dose: 150.0 mg/kg/injection, schedule: Q04DX002 (ip), vehicle: saline with Tween-80
  T/C: 96 % of control
dose: 300.0 mg/kg/injection, schedule: Q04DX002 (ip), vehicle: saline with Tween-80
  T/C: 95 % of control

## COc1ccc2sc(-c3ccccc3)cc(=O)c2c1CCl
dose: 100.0 mg/kg/injection, schedule: Q01DX001 (ip), vehicle: saline with Tween-80
  T/C: 94 % of control
dose: 200.0 mg/kg/injection, schedule: Q01DX001 (ip), vehicle: saline with Tween-80
  T/C: 97 % of control
dose: 400.0 mg/kg/injection, schedule: Q01DX001 (ip), vehicle: saline with Tween-80
  T/C: 100 % of control

## O=c1oc2ccc3ccccc3c2cc1-c1c[nH]c2ccccc12
[1]
  T/C: 98 % of control
[2]
  T/C: 95 % of control
[3]
  T/C: 98 % of control

## O=C(CCN1C(=O)CC1c1ccco1)N1CCOCC1 (stereo not drawn)
[1]
  T/C: 103 % of control
[2]
  T/C: 103 % of control
[3]
  T/C: 97 % of control

## O=[N+]([O-])c1cccn2nnnc12
dose: 3.12 mg/kg/injection, schedule: Q01DX009 (ip), vehicle: saline with Tween-80
  T/C: 102 % of control
dose: 6.25 mg/kg/injection, schedule: Q01DX009 (ip), vehicle: saline with Tween-80
  T/C: 87 % of control
dose: 12.5 mg/kg/injection, schedule: Q01DX009 (ip), vehicle: saline with Tween-80
  T/C: 93 % of control
dose: 25.0 mg/kg/injection, schedule: Q01DX009 (ip), vehicle: saline with Tween-80
  T/C: 95 % of control
[4]
  T/C: 117 % of control and 96 % of control
[5]
  T/C: 119 % of control

## c1ccc(-c2c[s+]cs2)cc1
dose: 6.25 mg/kg/injection, schedule: Q01DX009 (ip), vehicle: distilled water + Tween-80
  T/C: 111 % of control
dose: 12.5 mg/kg/injection, schedule: Q01DX009 (ip), vehicle: distilled water + Tween-80
  T/C: 107 % of control and 114 % of control
dose: 25.0 mg/kg/injection, schedule: Q01DX009 (ip), vehicle: distilled water + Tween-80
  T/C: 121 % of control and 123 % of control
dose: 50.0 mg/kg/injection, schedule: Q01DX009 (ip), vehicle: distilled water + Tween-80
  T/C: 104 % of control
dose: 100.0 mg/kg/injection, schedule: Q01DX009 (ip), vehicle: distilled water + Tween-80
  T/C: 114 % of control

## Cc1occ(Br)c(=O)c1O
dose: 50.0 mg/kg/injection, schedule: Q01DX005 (ip), vehicle: saline
  T/C: 104 % of control
dose: 100.0 mg/kg/injection, schedule: Q01DX005 (ip), vehicle: saline
  T/C: 103 % of control
dose: 200.0 mg/kg/injection, schedule: Q01DX005 (ip), vehicle: saline
  T/C: 103 % of control

## CC(C)OC(=S)SCC(=O)c1ccc(C(F)(F)F)cc1
[4]
  T/C: 105 % of control
[5]
  T/C: 104 % of control
dose: 200.0 mg/kg/injection, schedule: Q01DX009 (ip), vehicle: saline with Tween-80
  T/C: 98 % of control
dose: 400.0 mg/kg/injection, schedule: Q01DX009 (ip), vehicle: saline with Tween-80
  T/C: 100 % of control

## COc1ccc2c(c1)[nH]c1c(/C=C/c3ccc([N+](=O)[O-])cc3)nccc12
dose: 30.0 mg/kg/injection, schedule: Q01DX005 (ip), vehicle: Klucel (hydroxypropylcellulose) (HPC)
  T/C: 107 % of control
dose: 60.0 mg/kg/injection, schedule: Q01DX005 (ip), vehicle: Klucel (hydroxypropylcellulose) (HPC)
  T/C: 103 % of control
dose: 120.0 mg/kg/injection, schedule: Q01DX005 (ip), vehicle: Klucel (hydroxypropylcellulose) (HPC)
  T/C: 105 % of control
dose: 240.0 mg/kg/injection, schedule: Q01DX005 (ip), vehicle: Klucel (hydroxypropylcellulose) (HPC)
  T/C: 90 % of control

## CCOC1=CCCCC1
dose: 100.0 mg/kg/injection, schedule: Q04DX003 (ip), vehicle: alcohol
  T/C: 100 % of control
dose: 200.0 mg/kg/injection, schedule: Q04DX003 (ip), vehicle: alcohol
  T/C: 100 % of control
dose: 400.0 mg/kg/injection, schedule: Q04DX003 (ip), vehicle: alcohol
  T/C: 104 % of control

## O=C(CNC(=O)Nc1ccc(C2=NCCN2)cc1)Nc1ccc(C2=NCCN2)cc1
dose: 22.0 mg/kg/injection, schedule: Q01DX009 (ip), vehicle: saline with Tween-80
  T/C: 95 % of control
dose: 33.0 mg/kg/injection, schedule: Q01DX009 (ip), vehicle: saline with Tween-80
  T/C: 113 % of control
dose: 75.0 mg/kg/injection, schedule: Q01DX009 (ip), vehicle: saline with Tween-80
  T/C: 154 % of control

## S=P12OCCC(CO1)O2 (stereo not drawn)
dose: 100.0 mg/kg/injection, schedule: Q04DX003 (ip), vehicle: Klucel (hydroxypropylcellulose) (HPC)
  T/C: 100 % of control
dose: 200.0 mg/kg/injection, schedule: Q04DX003 (ip), vehicle: Klucel (hydroxypropylcellulose) (HPC)
  T/C: 97 % of control
dose: 400.0 mg/kg/injection, schedule: Q04DX003 (ip), vehicle: Klucel (hydroxypropylcellulose) (HPC)
  T/C: 97 % of control
